In patent publication US9404080B2, “Human taste cells capable of continuous proliferation” (B.R.A.I.N. BIOTECHNOLOGY RESEARCH AND INFORMATION NETWORK AG, priority 2012, dated 2016):
Entries after “also recorded” stand apart in the source; their conditions may differ.

Legend:
[1] = tested on: human taste cells BR-HTC8; assay: Fluo-4 fluorescent calcium imaging assay in BR-HTC8; assay type: cell-based; conditions: for change of Fluo4-fluorescence / intracellular calcium on addition of the test molecule: BR-HTC8, increasing concentrations in KH-buffer with Ca2+; for Fluo-4 assay BR-HTC8: dose-dependent increase in intracellular calcium on stimulation with the cognate bitter molecule of the TAS2R named in the row; as to Fluo-4 assay BR-HTC8: key: + indicates that the analysis was successful and that the mRNA was detected by RT-PCR or that stimulation of human taste cells with the respective taste molecule resulted in a dose-dependent increase in intracellular calcium or decrease in cellular membrane potential
Method: Before the assay, cells are maintained in HTC medium for at least 48 hours as described in Example 1. Cells are then trypsinized with accutase (e.g. PAA, L11-007) or TrypLE (e.g. Gibco, 12563) and seeded into poly-D-lysine coated 96-well assay plates (e.g. Corning) at a density of 15,000 cells/well in 100 μl HTC medium.
After 24 hours, the cells (still in 100 μl medium) are stained by addition of 100 μl of Fluo-4 staining solution, which consists of KH buffer (10 mM HEPES pH7.4 containing 118 mM NaCl, 4.7 mM KCl, 4.2 mM NaHCO3, 1.2 mM KH2PO4, 1.2 mM MgSO4, 1.3 mM CaCl2) containing 4 μM Fluo-4 (Molecular Probes) and incubation for 1 hour at 37° C. Final Fluo-4 concentration in the staining solution/medium mixture is 2 μM. Staining solution is then replaced by 80 μl KH-buffer per well and plates are transferred into a fluorescence microplate reader to monitor changes in Ca^2+-dependent fluorescence (excitation 488 nm, emission 530 nm) after the addition of 20 μl KH-buffer supplemented with the test molecule under investigation. The test molecule was added 16 seconds after starting the scan and baseline recording, mixed twice, and then recording continued for additional 44 seconds. Data points of a total of 18 reads were collected. Data analysis/Data recording—Calcium mobilization was measured as the change of peak fluorescence (ΔF) over the baseline level (F). Data were expressed as the mean S.E. of the ΔF/F value of replicated independent samples. Data analysis was done with software provided by the manufacturer of the microplate reader (e.g. Molecular Devices).
(§1) To test, whether stimulation of human taste cells with these taste molecules leads to changes in intracellular calcium the Fluo-4 fluorescent calcium imaging assay was performed as described above. Non-taste cells including HEK293 cells and non-lingual, proliferating primary cells isolated from the oral cavity served as a control and were treated equally throughout the procedure. Changes in Ca^2+-dependent Fluo-4 fluorescence were recorded on a Molecular Devices Fluorescence microplate reader. Measurement was started by addition of increasing concentrations of the taste molecules in KH-buffer to the cells. KH-buffer served as negative control and KH-buffer containing 1 μM ionomycin served as a positive control. […] Calcium signals for each test molecule are depicted as Relative Fluorescence Units (RFU), which means that calcium mobilization in response to taste molecules was calculated dF/F0, with dF is (peak fluorescence F1−baseline fluorescence F0). […] Data were obtained from several independent experiments and performed in triplicates.
In order to perform to the Fluo-4 fluorescent calcium imaging experiment in the absence of extracellular Ca^2+ the procedure was conducted as described above, however, the KH-buffer was prepared without addition of Ca^2+. Measurement was started by addition of increasing concentrations of the taste molecules in KH-buffer without Ca^2+ to the cells. KH-buffer without Ca^2+ served as negative control and KH-buffer without Ca^2+ containing 1 μM ionomycin served as a positive control.
To test, whether stimulation of human taste cells with oxytocin leads to changes in intracellular calcium the Fluo-4 fluorescent calcium imaging assay was performed as described above in Example 5. Briefly, the human taste cells were seeded in 96-well plates and stained with 2 μM of the calcium-sensitive fluorescence dye Fluo4 in HTC/KH buffer medium for one hour at 37° C. with subsequent replacement of the staining solution with KH-buffer. Non-taste cells including HEK293 cells and non-lingual, proliferating primary cells isolated from the oral cavity served as a control and were treated equally throughout the procedure. Changes in Ca^2+-dependent Fluo-4 fluorescence were recorded on a Molecular Devices Fluorescence microplate reader.

[2] = tested on: human taste cells BR-HTC8; assay: FLIPR fluorescent membrane potential (FMP) imaging assay in BR-HTC8; assay type: cell-based; conditions: for FMP assay BR-HTC8: dose-dependent decrease in cellular membrane potential on stimulation with the cognate bitter molecule of the TAS2R; for change of cellular membrane potential (FLIPR FMP dye fluorescence) on addition of the test molecule: BR-HTC8, increasing concentrations in KH-buffer; as to FMP assay BR-HTC8: key: + indicates that the analysis was successful and that the mRNA was detected by RT-PCR or that stimulation of human taste cells with the respective taste molecule resulted in a dose-dependent increase in intracellular calcium or decrease in cellular membrane potential
Method: This cell depolarization was measured by using voltage-sensitive dyes including FLIPR fluorescent membrane potential (FMP) dye (Molecular Devices R8123). Before the assay, cells were maintained in HTC medium for at least 48 hours as described above in Example 1. Cells were then trypsinized with accutase (e.g. PAA, L11-007) or TrypLE (e.g. Gibco, 12563) and seeded into poly-D-lysine coated 96-well assay plates (Corning) at a density of 15,000 cells/well in […].
After 24 hours, medium was removed and the cells are washed once with 100 μl KH buffer (10 mM HEPES pH7.4 containing 118 mM NaCl, 4.7 mM KCl, 4.2 mM NaHCO3, 1.2 mM KH2PO4, 1.2 mM MgSO4, 1.3 mM CaCl2) and then stained with 200 μl KH buffer containing FLIPR FMP dye according instructions of the manufacturer […] and incubation for 2 hours at 37° C. The plates were then transferred into a fluorescence microplate reader to monitor changes in membrane potential-dependent fluorescence (excitation 530 nm, emission 565 nm) after the addition of 50 μl KH-buffer supplemented with the test molecule under investigation. The test molecule was added 16 seconds after starting the scan and baseline recording, mixed twice, and then recording continued for additional 74 seconds. Data points of a total of 35 reads were collected.
Data analysis/Data recording—Changes of the membrane potential was measured as the change of peak fluorescence (ΔF) over the baseline level (F). Data were expressed as the mean S.E. of the ΔF/F value of replicated independent samples. Data analysis was done with software provided by the manufacturer of the microplate reader (Molecular Devices).
(§2) To test, whether stimulation of human taste cells with taste molecules leads to changes in cellular membrane potential the FLIPR fluorescent membrane potential assay was performed as described above. Non-taste cells including HEK293 cells and non-lingual, proliferating primary cells isolated from the oral cavity served as a control and were treated equally throughout the procedure. Changes in membrane potential were recorded on a Molecular Devices Fluorescence microplate reader. Measurement was started by addition of increasing concentrations of the taste molecules in KH-buffer to the cells. KH-buffer served as negative control and KH-buffer containing 4 μM FCCP (e.g. Sigma, C2920) served as a positive control. […] Data were obtained from several independent experiments and performed in triplicates.
as §2, with “This cell depolarization can be measured by using voltage-sensitive dyes including FLIPR fluorescent membrane potential (FMP) dye (Molecular Devices R8123) as described above in Example 6. To” for “To”, “oxytocin” for “taste molecules”, “oxytocin” for “the taste molecules”

BR-HTC38 cells = assay: Fluo-4 fluorescent calcium imaging assay in TAS2R38-transduced BR-HTC38; assay type: cell-based, human; conditions: BR-HTC38 (TAS2R38 expressed) vs BR-HTC8
Method: Changes in Ca^2+-dependent Fluo-4 fluorescence were recorded on a Molecular Devices fluorescence microplate reader. Measurement was started by addition of increasing concentrations of the taste molecules in KH-buffer to the cells. KH-buffer served as negative control and KH-buffer containing 1 μM ionomycin served as a positive control. […] Calcium signals for each test molecule are depicted as Relative Fluorescence Units (RFU), which means that calcium mobilization in response to taste molecules was calculated dF/F0, with dF is (peak fluorescence F1−baseline fluorescence F0). […] Data were obtained from several independent experiments and performed in triplicates.

[3] = tested on: Non-taste cells including HEK293 cells, Cal33 cells, and non-lingual, proliferating primary cells isolated from the oral cavity; assay: Fluo-4 fluorescent calcium imaging assay in non-taste control cells; assay type: cell-based, human
Method: Briefly, human taste cells were seeded in 96-well plates and stained with Fluo4-AM. Non-taste cells including HEK293 cells, Cal33 cells, and non-lingual, proliferating primary cells isolated from the oral cavity served as a control. Changes in Ca^2+-dependent Fluo-4 fluorescence were recorded on a Molecular Devices fluorescence microplate reader. Measurement was started by addition of increasing concentrations of the taste molecules. […] Calcium signals for each test molecule are depicted as relative fluorescence units (RFU).
as §1

COc1ccc2c(c1)CC[C@@H]1[C@@H]2CC[C@]2(C)[C@@H](NCCCCCCN3C(=O)C=CC3=O)CC[C@@H]12 [U73122]
calcium response to saccharin in the presence of U73122 ([1]; 5 μM U73122, BR-HTC8): not reduced | calcium signalling on stimulation with salicin in the presence of U73122 ([1]; 5 μM U73122, BR-HTC8): inhibited

O=S(=O)(NCCNC/C=C/c1ccc(Br)cc1)c1cccc2cnccc12 [H89]
calcium response to saccharin in the presence of H89 ([1]; 0.5 μM H89, BR-HTC8): not reduced | calcium signalling on stimulation with salicin in the presence of H89 ([1]; 0.5 μM H89, BR-HTC8): slightly inhibited

NC(=S)Nc1ccccc1 [PTC, phenylthiocarbamide]
FMP assay BR-HTC8 [2]: + | change of Fluo4-fluorescence / intracellular calcium on addition of the test molecule [1]: dose-dependent increase of Fluo4-fluorescence | Fluo-4 assay BR-HTC8 [1]: + | dose-dependent Fluo-4 calcium response in BR-HTC38 compared with parental BR-HTC8 (BR-HTC38 cells): enhanced

COc1cccc2c1cc([N+](=O)[O-])c1c(C(=O)O)cc3c(c12)OCO3 [Aristolochic acid]
change of cellular membrane potential (FLIPR FMP dye fluorescence) on addition of the test molecule [2]: dose-dependent decrease in cellular membrane potential; also recorded: dose-dependent decrease of membrane potential | FMP assay BR-HTC8 [2]: + | change of Fluo4-fluorescence / intracellular calcium on addition of the test molecule [1]: dose-dependent increase of Fluo4-fluorescence | Fluo-4 assay BR-HTC8 [1]: + | increase of Fluo4-fluorescence in control cells [3]: not in control cells

CC[C@H](C)[C@@H]1NC(=O)[C@H](Cc2ccc(O)cc2)NC(=O)[C@@H](N)CSSC[C@@H](C(=O)N2CCC[C@H]2C(=O)N[C@@H](CC(C)C)C(=O)NCC(N)=O)NC(=O)[C@H](CC(N)=O)NC(=O)[C@H](CCC(N)=O)NC1=O [oxytocin]
change of cellular membrane potential (FLIPR FMP dye fluorescence) on addition of the test molecule [2]: dose-dependent decrease of membrane potential | change of Fluo4-fluorescence / intracellular calcium on addition of the test molecule [1]: dose-dependent increase of Fluo4-fluorescence

CCN(CC)CCCC(C)Nc1ccnc2cc(Cl)ccc12 (centres unmarked) [Chloroquine]
FMP assay BR-HTC8 [2]: +

CC[N+](CC)(CC(=O)Nc1c(C)cccc1C)Cc1ccccc1.O=C([O-])c1ccccc1 [Denatonium benzoat]
Fluo-4 assay BR-HTC8 [1]: +

O=C(N[C@H](CO)[C@H](O)c1ccc([N+](=O)[O-])cc1)C(Cl)Cl [Chloramphenicole]
Fluo-4 assay BR-HTC8 [1]: +

CC1=CC(=O)[N-]S(=O)(=O)O1.[K+] [Acesulfame K]
change of cellular membrane potential (FLIPR FMP dye fluorescence) on addition of the test molecule [2]: decrease in cellular membrane potential | FMP assay BR-HTC8 [2]: + | change of Fluo4-fluorescence / intracellular calcium on addition of the test molecule [1]: do not trigger an increase in intracellular calcium | Fluo-4 assay BR-HTC8 [1]: +

CCCCCCCC/C=C\CCCCCCCC(=O)O [oleic acid]
change of Fluo4-fluorescence / intracellular calcium on addition of the test molecule [1]: dose-dependent increase of Fluo4-fluorescence | increase of Fluo4-fluorescence in control cells [3]: not in control cells

CCCCC/C=C\C/C=C\CCCCCCCC(=O)O [linoleic acid]
change of Fluo4-fluorescence / intracellular calcium on addition of the test molecule [1]: dose-dependent increase of Fluo4-fluorescence | increase of Fluo4-fluorescence in control cells [3]: not in control cells

O=C1NS(=O)(=O)c2ccccc21 [Saccharin]
change of Fluo4-fluorescence / intracellular calcium on addition of the test molecule [1]: dose-dependent increase of Fluo4-fluorescence | Fluo-4 calcium response in the absence of extracellular Ca2+ ([1]; KH-buffer without Ca2+, BR-HTC8, molecule alone): cannot trigger a Ca^2+ response; also recorded: did not trigger increase of intracellular Ca^2+; also recorded: no response | increase of intracellular calcium in response to salicin when combined with saccharin ([1]; absence of extracellular calcium, increasing salicin with four fixed concentrations of saccharin): strongly enhanced | Fluo-4 assay BR-HTC8 [1]: + | increase of Fluo4-fluorescence in control cells [3]: not in control cells | dose-dependent Fluo-4 calcium response in BR-HTC38 compared with parental BR-HTC8 (BR-HTC38 cells): enhanced

O=C(O[C@@H]1Cc2c(O)cc(O)cc2O[C@@H]1c1cc(O)c(O)c(O)c1)c1cc(O)c(O)c(O)c1 [EGCG]
Fluo-4 assay BR-HTC8 [1]: +

CC1COc2c(N3CCN(C)CC3)c(F)cc3c(=O)c(C(=O)O)cn1c23 (centres unmarked) [Ofloxacine]
Fluo-4 assay BR-HTC8 [1]: +

Nc1ncnc2c1ncn2[C@@H]1O[C@H](COP(=O)(O)OP(=O)(O)OP(=O)(O)O)[C@@H](O)[C@H]1O [ATP, adenosine triphosphate]
change of cellular membrane potential (FLIPR FMP dye fluorescence) on addition of the test molecule [2]: dose-dependent decrease in cellular membrane potential; also recorded: dose-dependent decrease of membrane potential | change of Fluo4-fluorescence / intracellular calcium on addition of the test molecule [1]: increase in intracellular calcium

Cc1ccccc1C(OCCN(C)C)c1ccccc1 (centres unmarked) [Orphenadrine]
Fluo-4 assay BR-HTC8 [1]: +

COc1cc(OC2CCN(C(C)=O)CC2)ccc1C(=O)N1CCC(N2C(=O)OCc3ccccc32)CC1 [L371,257]
calcium signalling on stimulation with oxytocin in the presence of L371,257 ([1]; 40 nM L371,257, BR-HTC8): inhibited
